Experimental data reported in patent publication US20230012936A1, “COMBINATION THERAPY USING GLUCAGON AND GLP-1 CO-AGONISTS FOR THE TREATMENT OF OBESITY” (MEDIMMUNE, LLC, priority 2019, published 2023).
Where two headings read alike, the source gives them in different places.

What was measured:
Format in all cases: in vivo, human
[1] = tested on: overweight/obese subjects with Type 2 Diabetes Mellitus (T2DM); assay: Fasting free fatty acid (FFA) levels; details: Day 28 (300 μg); vs placebo
Procedure: The changes in fasting free fatty acid (FFA) from baseline to the end of each dose level were assessed. Fasting FFA changes from baseline to Day 7 (100 μg), Day 14 (200 μg), or Day 28 (300 μg) were similar between treatment groups (LS mean difference at Day 28: −0.04 mEq/L; p=0.5322).

[2] = Pharmacokinetics of cotadutide in plasma (LC-MS/MS)
Procedure: The Cmax and the corresponding tmax were identified from the observed data. Log-linear regression of the terminal phase yielded the terminal rate constant (λz). The area under the plasma concentration time-curve during the dosing interval (AUCτ) was calculated by the log-linear trapezoidal rule. The area under the curve to infinity (AUC0-inf) was calculated as the sum of AUC(o-t) and Ct/z, where Ct is the observed plasma concentration obtained from the log-linear regression analysis of the last quantifiable time point and z is the terminal phase rate constant. Clearance (CL/F) was determined by dose/AUC0-inf, and the terminal half-life (t1/2) was calculated as 0.693/λz.

[3] = Immunogenicity: anti-drug antibody (ADA) response to cotadutide
Procedure: Blood samples were collected to evaluate anti-drug antibody (ADA) response to cotadutide. Serum samples were evaluated for ADA using a validated immunoassay. Adverse events (AEs) and serious adverse events (SAEs) were collected from the time of informed consent throughout the treatment period and including the follow-up period. AEs and SAEs were graded by severity and relationship to investigational product and SAEs were assessed for relationship to protocol procedures.
Development of ADA and titres (in any subjects testing positive) were assessed to evaluate the immunogenicity profile of cotadutide titrated up to a dose of 300 μg. No subjects in the placebo group and 3 subjects (12.0%) in the cotadutide group tested positive for ADA at baseline. None of these subjects who tested positive at baseline were ADA positive post-baseline. One subject (4.2%) in the placebo group and 3 subjects (12.5%) in the cotadutide group were ADA positive post-baseline.

[4] = tested on: overweight/obese subjects with Type 2 Diabetes Mellitus (T2DM); assay: 24-hour glucose urine excretion; details: Day 28
Procedure: Changes in 24-hour glucose urine excretion from baseline to Day 28 were assessed. At baseline, subjects in the cotadutide group had less urine glucose excretion compared with subjects in the placebo group (4552.85 vs 9107.06 mg/24 hr, respectively).

[5] = tested on: overweight/obese subjects with Type 2 Diabetes Mellitus (T2DM); assay: Hemoglobin A1c (HbA1c), Phase 2a study
Procedure: The change in hemoglobin A1c (glycated hemoglobin; HbA1c) from baseline to Day 28 was assessed.

[6] = tested on: overweight/obese subjects with Type 2 Diabetes Mellitus (T2DM); details: for Change from baseline in percentage of CGM glucose readings within the hyperglycemic range, mean: glucose >180 mg/dL; for Change from baseline in percentage of CGM glucose readings within the euglycemic range, mean: glucose ≥70 and ≤180 mg/dL; for 7-Day CGM mean glucose, mean / 7-Day CGM mean glucose, median: post-hoc
Description: A continuous glucose monitoring (CGM) device was used to measure interstitial glucose levels during the study. Subjects wore the CGM sensor continuously up until the time of a sensor change (every 7 to 14 days). If a subject was unable to tolerate wearing the CGM sensor for the entire duration of the study, the sensor was to be removed; but the subject should have remained in the study with or without continued CGM.
Subjects underwent continuous glucose monitoring (CGM) for a total of 28 days with sensor changes every 7 to 14 days. The changes in CGM glucose AUC0-24 h and mean glucose over 24 hours from baseline to the end of each dosing level on Days 7 (100 μg), 14 (200 μg), and 28 (300 μg) were measured. Variability in glucose levels was also assessed by measuring the changes in standard deviation (SD), coefficient of variation (CV), and mean amplitude of glucose excursion (MAGE) of CGM glucose values over 24 hours.
Changes from baseline in the percentages of 24-hour CGM glucose readings that fell within the euglycemic, hyperglycemic, hypoglycemic, and clinically significant hypoglycemic ranges were assessed at the end of each dosing level.
In addition, a post-hoc analysis of CGM mean glucose over 7 days was conducted to further evaluate the effect of cotadutide on glucose control at each dose level.

SMILES: CCCCCCCCCCCCCCCC(=O)N[C@@H](CCC(=O)NCCCC[C@H](NC(=O)[C@H](CC(=O)O)NC(=O)[C@H](CO)NC(=O)[C@@H](NC(=O)[C@H](Cc1ccccc1)NC(=O)[C@@H](NC(=O)CNC(=O)[C@H](CCC(N)=O)NC(=O)[C@H](CO)NC(=O)[C@@H](N)Cc1c[nH]cn1)[C@@H](C)O)[C@@H](C)O)C(=O)N[C@@H](CO)C(=O)N[C@@H](CCC(=O)O)C(=O)N[C@@H](Cc1ccc(O)cc1)C(=O)N[C@@H](CC(C)C)C(=O)N[C@@H](CC(=O)O)C(=O)N[C@@H](CO)C(=O)N[C@@H](CCC(=O)O)C(=O)N[C@@H](CCCNC(=N)N)C(=O)N[C@@H](C)C(=O)N[C@@H](CCCNC(=N)N)C(=O)N[C@@H](CC(=O)O)C(=O)N[C@@H](Cc1ccccc1)C(=O)N[C@H](C(=O)N[C@@H](C)C(=O)N[C@@H](Cc1c[nH]c2ccccc12)C(=O)N[C@@H](CC(C)C)C(=O)N[C@@H](CCC(=O)O)C(=O)N[C@@H](C)C(=O)NCC(=O)NCC(=O)O)C(C)C)C(=O)O [Cotadutide]
- Fasting FFA change from baseline, LS mean difference [1]: −0.04 mEq/L
- Effect of dapagliflozin on cotadutide clinical PK ([2]; cotadutide 100 to 300 μg/day): not affected by the presence of dapagliflozin
- half-life ([2]; human, plasma, subcutaneous, 300 ug, across doses 100, 200 and 300 μg, read-out: Cotadutide half-life t1/2): 8.8 to 9.1 h
- Subjects ADA positive post-baseline ([3]; 3 subjects): 12.5%
- Subjects ADA positive at Day 29 ([3]; Day 29, 1 subject): 4.2%
- Subjects ADA positive at the End of Study ([3]; End of Study, 2 subjects): 8.3%
- Treatment boosted ADA (baseline titre boosted 4-fold or higher) ([3]; during drug administration): No subjects had a treatment boosted ADA
- 24-hour glucose urine excretion, change from baseline, LS mean [4]: −643.46 mg/24h
- 24-hour glucose urine excretion, change from baseline, LS mean difference ([4]; vs placebo): 921.26 mg/24h
- Hemoglobin A1c, Day 28, mean ([5]; Day 28, ITT): 6.75%
- Hemoglobin A1c, Day 28, median ([5]; Day 28, ITT): 6.65%
- Hemoglobin A1c, change from baseline, mean ([5]; baseline to Day 28): −1.04%
- Hemoglobin A1c, change from baseline, median ([5]; baseline to Day 28): −1.10%
- Hemoglobin A1c, change from baseline, LS mean ([5]; baseline to Day 28, ANCOVA): −1.03%
- Hemoglobin A1c, change from baseline, LS mean difference ([5]; baseline to Day 28, vs placebo): −0.58%
- Change from baseline in CGM mean glucose over 24 hours, mean ([6]; Day 7 (100 μg)): -34.74 mg/dL
- Change from baseline in MAGE of CGM glucose, mean ([6]; Day 7 (100 μg)): -25.74 mg/dL
- Change in CGM glucose AUC0-24 h from baseline, mean ([6]; Day 7 (100 μg)): -832.66 mg·h/dL
- Change in CGM glucose AUC0-24 h from baseline, median ([6]; Day 7 (100 μg)): -962.95 mg·h/dL
- Change in SD over 24 hours in CGM glucose from baseline, mean ([6]; Day 7 (100 μg)): -7.21 mg/dL
- Change in SD over 24 hours in CGM glucose from baseline, median ([6]; Day 7 (100 μg)): -11.16 mg/dL
- Change from baseline in percentage of CGM glucose readings within the hyperglycemic range, mean ([6]; Day 7): −13.99%
- Change from baseline in percentage of CGM glucose readings within the euglycemic range, mean ([6]; Day 7): 7.12%
- Change from baseline in CGM mean glucose over 24 hours, mean ([6]; Day 14 (200 μg)): -28.34 mg/dL
- Change from baseline in MAGE of CGM glucose, mean ([6]; Day 14 (200 μg)): -26.59 mg/dL
- Change in CGM glucose AUC0-24 h from baseline, mean ([6]; Day 14 (200 μg)): -666.05 mg·h/dL
- Change in CGM glucose AUC0-24 h from baseline, median ([6]; Day 14 (200 μg)): -897.02 mg·h/dL
- Change in SD over 24 hours in CGM glucose from baseline, mean ([6]; Day 14 (200 μg)): -7.52 mg/dL
- Change in SD over 24 hours in CGM glucose from baseline, median ([6]; Day 14 (200 μg)): -8.36 mg/dL
- Change from baseline in percentage of CGM glucose readings within the hyperglycemic range, mean ([6]; Day 14): −9.81%
- Change from baseline in percentage of CGM glucose readings within the euglycemic range, mean ([6]; Day 14): 5.31%
- Change in CGM glucose AUC0-24 h from baseline, mean ([6]; Day 28 (LOCF) (300 μg)): -695.16 mg·h/dL
- Change in CGM glucose AUC0-24 h from baseline, median ([6]; Day 28 (LOCF) (300 μg)): -928.48 mg·h/dL
- Change in SD over 24 hours in CGM glucose from baseline, mean ([6]; Day 28 (LOCF) (300 μg)): -8.89 mg/dL
- Change in SD over 24 hours in CGM glucose from baseline, median ([6]; Day 28 (LOCF) (300 μg)): -9.57 mg/dL
- Change in CGM glucose AUC0-24 h from baseline, LS mean ([6]; Day 28 (LOCF), ANCOVA): -658.64 mg·h/dL
- Change in SD over 24 hours in CGM glucose from baseline, LS mean ([6]; Day 28 (LOCF), ANCOVA): -9.73 mg/dL
- Change in SD over 24 hours in CGM glucose from baseline, LS mean difference ([6]; Day 28 (LOCF), vs placebo): -8.45 mg/dL
- Change in CGM glucose AUC0-24 h from baseline, LS mean difference ([6]; Day 28 (LOCF), vs placebo, ANCOVA): -806.61 mg·h/dL
- CV of CGM glucose over 24 hours, change from baseline, LS mean difference ([6]; Day 28, vs placebo): −2.41%
- Change from baseline in CGM mean glucose over 24 hours, LS mean difference ([6]; Day 28, vs placebo): -34.06 mg/dL
- Change from baseline in MAGE of CGM glucose, LS mean difference ([6]; Day 28, vs placebo): -24.83 mg/dL
- Change from baseline in percentage of CGM glucose readings within the euglycemic range, LS mean difference ([6]; Day 28, vs placebo): 8.78%
- Change from baseline in percentage of CGM glucose readings within the hyperglycemic range, LS mean difference ([6]; Day 28, vs placebo): −12.83%
- 7-Day CGM mean glucose, mean ([6]; Days 1 to 7 (100 μg dose)): 116.82 mg/dL
- 7-Day CGM mean glucose, median ([6]; Days 1 to 7 (100 μg dose)): 111.40 mg/dL
- 7-Day CGM mean glucose, mean ([6]; Days 8 to 14 (200 μg dose)): 118.78 mg/dL
- 7-Day CGM mean glucose, median ([6]; Days 8 to 14 (200 μg dose)): 113.48 mg/dL
- 7-Day CGM mean glucose, mean ([6]; Days 15 to 21 (300 μg dose)): 120.94 mg/dL
- 7-Day CGM mean glucose, median ([6]; Days 15 to 21 (300 μg dose)): 106.17 mg/dL
- 7-Day CGM mean glucose, mean ([6]; Days 22 to 28 (300 μg dose)): 115.61 mg/dL
- 7-Day CGM mean glucose, median ([6]; Days 22 to 28 (300 μg dose)): 108.78 mg/dL
- Change from baseline in percentage of CGM glucose readings within the hypoglycemic range, LS mean difference ([6]; in vivo): 3.35%
